Consider eight molecules from PubChem BioAssay (NCI).

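Five compound concentrations were applied to cells in 96-well plates for 48 hours; endpoints were derived by simple linear interpolation of the resulting dose-response curve. Here, GI50 denotes the concentration required for 50% inhibition of growth. The concentration for full growth arrest is given as TGI.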

What all share (test): growth of human tumour cells (NCI), 48 h
The subject of experiment [1] is HCT-116 colon.
The test system of experiment [2] is CAKI-1 renal.
Experiment [3] has as its system SK-MEL-28 melanoma.
Experiment [4] deals with MOLT-4 leukemia.
The test system of experiment [5] is ACHN renal.
Experiment [6] deals with MALME-3M melanoma.
Experiment [7] concerns NCI/ADR-RES ovarian.
Experiment [8] relates to RPMI-8226 leukemia.
For experiment [9], the system named is HT29 colon.
The subject of experiment [10] is HCT-15 colon.

With `CCn1c(SCc2ccc(C)cc2)nnc1-c1nn(-c2ccc(Cl)cc2Cl)c(-c2ccc(Cl)cc2)c1C`, the GI50 in experiment [1] was 573 nM; in experiment [2], 2830 nM; in experiment [3], 3110 nM; in experiment [4], 2150 nM; in experiment [5], 2740 nM; in [6], 2150 nM. Also, the GI50 in [7] is 3540 nM; in [8] it was 464 nM; in [9] it was 1110 nM; in experiment [10] it was 2700 nM. Moreover, the TGI came out at 10.6 µM in experiment [1]; 12.6 µM in experiment [2]; 15.3 µM in experiment [3]; 11 µM in experiment [4]; 10.4 µM in experiment [5]; 8.88 µM in experiment [6]. Further, the TGI in experiment [7] came out at 14.6 µM; in experiment [8], 3.05 µM; in experiment [9], 10.6 µM; in experiment [10] it was 11.4 µM.
As to `C[C@]12CC[C@@H]3c4cc(OCC(F)(F)F)c(O)cc4/C(=N/O)C[C@H]3[C@@H]1CC[C@@H]2O`, the GI50 was 42.1 nM in [1]; 63.7 nM in [3]; 57.5 nM in [4]; 65 nM in experiment [5]; 39.2 nM in experiment [7]; 58.4 nM in experiment [8]. Moreover, the GI50 in experiment [10] was 48.7 nM. Further, the TGI in experiment [1] is 15.2 µM; in experiment [2], over 66.6 µM; in [3], 25.9 µM; in [5] it was over 64 µM; in [6], 29.6 µM; in [7], 2.49 µM. The TGI was 2.33 µM in [8], 13.2 µM in [9] and over 42.5 µM in experiment [10].
Consider `COc1ccc(CCN2COc3c([C@@H](C)CCC=C(C)C)ccc(C)c3C2)cc1OC`, for which the GI50 is 2170 nM in experiment [1]; 2730 nM in experiment [2]; 2210 nM in experiment [3]; 3690 nM in experiment [4]; 6110 nM in [5]; 1530 nM in experiment [6]. For the same molecule, the GI50 is 2960 nM in experiment [7], 2090 nM in [8], 2200 nM in experiment [9] and 2840 nM in [10]. The TGI is 4.94 µM in experiment [1]; 12.1 µM in experiment [2]; 4.94 µM in experiment [3]; over 100 µM in [4]; 20.2 µM in [5]; 3.18 µM in [6]. The TGI came to 9.51 µM in experiment [7], 7.67 µM in [8], 5.73 µM in experiment [9] and 10.4 µM in experiment [10].
Regarding `CC(=O)C(=CN1CCN(C(=O)c2ccco2)C1=S)C(C)=O`, the GI50 is 4050 nM in experiment [1]; 5190 nM in [2]; 3940 nM in [3]; 8200 nM in experiment [4]; 2870 nM in experiment [5]; 20700 nM in experiment [6]. Moreover, the GI50 was 23200 nM in experiment [7], 2740 nM in experiment [8], 17100 nM in experiment [9] and 2160 nM in experiment [10]. Besides, the TGI in [1] is 13.7 µM; in experiment [2], 19.1 µM; in experiment [3], 25.8 µM; in [4], over 100 µM; in experiment [5], 8.04 µM; in experiment [6], 47.9 µM. For the same molecule, the TGI was 56.6 µM in experiment [7], over 100 µM in experiment [8], 53.8 µM in [9] and 5.55 µM in experiment [10].
For `CC/C=C\C[C@H]1C/C=C2/C(=O)C=C[C@@H]2C/C=C\CCCC(=O)O1`, the GI50 in experiment [1] was 218 nM; in experiment [2] it was 1050 nM; in experiment [3], 791 nM; in experiment [4] it was 604 nM; in [5], 197 nM; in experiment [6], 1920 nM. Moreover, the GI50 in experiment [7] was 405 nM; in experiment [8], 352 nM; in [9] it was 376 nM; in experiment [10] it was 423 nM. Also, the TGI in experiment [1] was 0.511 µM; in [2], 8.98 µM; in experiment [3], 3.07 µM; in experiment [4], 5.21 µM; in experiment [5], 0.393 µM; in [6] it was 4.86 µM. The TGI in experiment [7] stood at 7.32 µM; in [8], 4.03 µM; in experiment [9], 1.27 µM; in experiment [10], 2.86 µM.
For the molecule `COc1cc(/C=C/c2ccc(OC)c(OC)c2)cc(OC)c1`, the TGI in experiment [1] is over 100 µM; in experiment [2] it was 94.1 µM; in experiment [3], over 100 µM; in [4] it was over 100 µM; in [5], 89.8 µM; in experiment [6] it was over 100 µM. Further, the TGI in [7] was 60 µM; in experiment [8], over 100 µM; in [9], 94.4 µM; in experiment [10], 23.7 µM.
On to `O=S(=O)(Nc1cc(Sc2cccc3cccnc23)c(O)c2ccccc12)c1ccccc1`, for which the GI50 was 555 nM in experiment [1]; 1970 nM in experiment [2]; 801 nM in [3]; 546 nM in experiment [4]; 772 nM in [5]; 2720 nM in experiment [6]. The GI50 in experiment [7] was 931 nM; in [8], 2380 nM; in experiment [9], 2420 nM; in experiment [10], 464 nM. In addition, the TGI in [1] stood at 2.8 µM; in [2], 10.1 µM; in [3] it was 5.57 µM; in [4], 5.53 µM; in experiment [5], 5.54 µM; in experiment [6], 9.65 µM. Moreover, the TGI in experiment [7] stood at 11 µM; in experiment [8], 7.9 µM; in experiment [9], 14.4 µM; in experiment [10] it was 2.5 µM.
For `C=C1CCC(CC[C@@H]2CC[C@]3(OC2)O[C@@]2(O)CC[C@]3(C)OC2(C)C)C(C)(C)[C@H]1C/C=C1/C(=O)OC[C@@H]1O` (stereo partly specified), the TGI in experiment [1] is 4.89 µM; in experiment [2], 16.5 µM; in experiment [3], 3.58 µM; in experiment [4] it was 5.45 µM; in experiment [5], 6.89 µM; in experiment [6], 5.99 µM. Further, the TGI in experiment [7] is 6.92 µM; in experiment [8], over 25.1 µM; in experiment [9], 5.01 µM; in experiment [10], 3.25 µM.
